Source: PubChem BioAssay (NCI)
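All cell lines were grown in 96-well plates and treated with compound for 48 hours. At the TGI there is no net growth.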

Columns and labels:
Assay in all cases: NCI tumour cell line growth inhibition, 48 h
786-0 renal = test system: 786-0 renal
A549 NSCLC = test system: A549 NSCLC
BT-549 breast = test system: BT-549 breast
CAKI-1 renal = test system: CAKI-1 renal
DU-145 prostate = test system: DU-145 prostate
HCT-15 colon = test system: HCT-15 colon
HT29 colon = test system: HT29 colon
LOX IMVI melanoma = test system: LOX IMVI melanoma
MCF7 breast = test system: MCF7 breast
MDA-MB-435 = test system: MDA-MB-435
MDA-N = test system: MDA-N
MOLT-4 leukemia = test system: MOLT-4 leukemia
NCI/ADR-RES ovarian = test system: NCI/ADR-RES ovarian
OVCAR-5 ovarian = test system: OVCAR-5 ovarian
SF-539 CNS = test system: SF-539 CNS
SK-MEL-5 melanoma = test system: SK-MEL-5 melanoma
SR leukemia = test system: SR leukemia
TK-10 renal = test system: TK-10 renal
COLO 205 colon = test system: COLO 205 colon
SK-MEL-2 melanoma = test system: SK-MEL-2 melanoma

SMILES	TGI (786-0 renal) [µM]	TGI (A549 NSCLC) [µM]	TGI (BT-549 breast) [µM]	TGI (CAKI-1 renal) [µM]	TGI (DU-145 prostate) [µM]	TGI (HCT-15 colon) [µM]	TGI (HT29 colon) [µM]	TGI (LOX IMVI melanoma) [µM]	TGI (MCF7 breast) [µM]	TGI (MDA-MB-435) [µM]	TGI (MDA-N) [µM]	TGI (MOLT-4 leukemia) [µM]	TGI (NCI/ADR-RES ovarian) [µM]	TGI (OVCAR-5 ovarian) [µM]	TGI (SF-539 CNS) [µM]	TGI (SK-MEL-5 melanoma) [µM]	TGI (SR leukemia) [µM]	TGI (TK-10 renal) [µM]	TGI (COLO 205 colon) [µM]	TGI (SK-MEL-2 melanoma) [µM]
CCCCCC(=O)CCCCCCCC(O)CC(=O)OCC (centres undefined)	> 100	> 100	> 100	> 100	> 100	> 100	> 100	> 100	> 100	> 100	> 100	> 100	> 100	> 100	> 100	> 100	> 100	> 100		
O=C(N[C@@H](c1ccccc1)[C@@H](O)C(=O)OCc1ccc([N+](=O)[O-])cc1)c1ccccc1	> 100	> 100	> 100	> 100	> 100	> 100	> 100	> 100	> 100	> 100	> 100	76	> 100	> 100	> 100	> 100		> 100	> 100	> 100
CC(C)N(C(=O)C1(O)c2ccccc2C=Cc2ccccc21)C(C)C	38.8	48.3	34.6	57.7	33.1	44.6	33.5		31	> 100	37.9	82.8	35.4	27.9	33.4	29.8	63	31.9	33.4	30.7
C#CC(C)(C)OC(=O)C(=[N+]=[N-])C(C)=O	> 10	> 10	> 10		> 10	> 10	> 10	> 10	> 10	> 10	> 10	> 10		> 10	> 10	> 10	> 10	> 10		> 10
CN1CCc2c(sc3ncn(C)c(=N)c23)C1	> 100	> 100	> 100	> 100	> 100	> 100	> 100	> 100	> 100	> 100	> 100	> 100	> 100	> 100	> 100	> 100		> 100	> 100	> 100
O=S1(=O)Cc2ccc3c4c2-c2c(ccc5ccc(c-4c25)CS(=O)(=O)C3)C1	> 100	> 100	> 100		> 100	> 100	> 100	> 100	> 100	> 100	> 100	> 100	> 100	> 100	> 100		69	> 100		> 100
Oc1cc(O)cc(-c2nc3cc(F)ccc3s2)c1	47.1	> 100	53.2	53.8	> 100	61.6	44.8	39.3	64.6	> 100	> 100		> 100	57.2	68.3	37.1		76.5	40	45.1
COC1=CC2C(c3cc4ccccc4n3S(=O)(=O)c3ccccc3)CC1CN2C(=O)OCc1ccccc1 (centres undefined)	> 100	> 100	75.1	> 100	> 100	> 100	65.1	57.7	> 100	75.9	> 100		> 100	45.2		58.9		> 100	31.2	54.2
COc1cc(C(C)=O)cc(C(=O)N(C(C)C)C(C)C)c1[Si](C)(C)C	> 100	> 100	> 100	> 100	> 100	> 100		> 100	> 100	> 100	> 100	> 100			> 100	> 100		> 100	> 100	> 100
O=C(c1cccs1)N(C(=O)N1CCN(c2ccccc2)CC1)S(=O)(=O)c1ccccc1	59.4	98.4	84	59.9	60.9	75.4	> 100		74.6	70.6	41.8	49.8	57.2	55.7	35.2	30.7	49.3	> 100	30.1	36.3
